Source: patent US20030220521A1, “Renal-selective prodrugs for control of renal sympathetic nerve activity in the treatment of hypertension” (G.D. Searle & Co., priority 1989, published 2003)
Structures can show the parent of a compound that is named as a salt.

Experiments:
[1] = target: T1, dopamine beta-hydroxylase (DBH; EC 1.14.17.1) (Bos taurus, UniProt P15101); assay: Assay V: in vitro DBH inhibition (norepinephrine production, HPLC); assay type: biochemical, bovine; settings: for inhibition at 20 µM: test compound 20 μM, read-out: % Inhibition of DBH
T1 construct: DBH, purified from bovine adrenals (Sigma); purchased Sigma; host or cells: bovine adrenals (tissue-purified)
T1 sequence (P15101 1-610): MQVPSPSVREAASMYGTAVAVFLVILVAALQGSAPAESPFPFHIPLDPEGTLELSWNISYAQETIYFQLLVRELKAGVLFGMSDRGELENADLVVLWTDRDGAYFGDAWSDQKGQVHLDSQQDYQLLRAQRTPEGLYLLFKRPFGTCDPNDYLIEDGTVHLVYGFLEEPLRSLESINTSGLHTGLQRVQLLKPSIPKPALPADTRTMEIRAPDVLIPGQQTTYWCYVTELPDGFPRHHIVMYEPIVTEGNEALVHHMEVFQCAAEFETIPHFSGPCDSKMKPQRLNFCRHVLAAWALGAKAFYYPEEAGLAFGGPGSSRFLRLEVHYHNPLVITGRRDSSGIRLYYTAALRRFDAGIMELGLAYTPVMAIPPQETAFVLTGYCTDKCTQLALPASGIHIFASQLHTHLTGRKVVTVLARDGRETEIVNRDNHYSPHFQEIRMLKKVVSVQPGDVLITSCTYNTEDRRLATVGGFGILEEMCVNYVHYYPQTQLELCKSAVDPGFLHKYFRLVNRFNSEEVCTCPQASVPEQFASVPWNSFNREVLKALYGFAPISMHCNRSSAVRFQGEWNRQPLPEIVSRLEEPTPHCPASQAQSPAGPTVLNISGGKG
Experimental: In order to characterize the relative potency of the Ex. #859 conjugate and its various potential metabolites as inhibitors of dopamine beta-hydroxylase (DBH; EC 1.14.17.1), the enzyme activity was determined in vitro in the presence of these compounds. DBH, purified from bovine adrenals (Sigma) was incubated at 37° C. in buffer containing 20 mM dopamine as substrate. The reaction was stopped by addition of 0.5 M perchloric acid. The precipitate was removed and the product of the enzyme activity (norepinephrine), contained in the clear supernatant, was analyzed by HPLC. The chromatographic separation used a reversed phase C-18 column run isocratically with 0.2 M ammonium acetate (pH 5.2) as the mobile phase. The amount of norepinephrine produced by the enzyme-substrate mixture was analyzed by measuring the peak intensity (absorbance) at 280 nm for norepinephrine as it was eluted at 4.5 minutes, using a photo-diode array detector. The result of adding either fusaric acid or the Ex. #859 conjugate to the incubate at various concentrations is shown in Table XXIII and FIG. 6. […] Fusaric acid and Ex. #859 and two more possible metabolites (Ex #858 and fusaric acid hydrazide) were tested at 20 uM.

[2] = test system: Spontaneously Hypertensive Rats (SHR); assay: Assay VII: acute effects on arterial pressure in anesthetized SHR; assay type: in vivo, rat; settings: i.v.: fusaric acid and fusaric acid hydrazide 100 mg/kg, Ex. #859 250 mg/kg
Experimental: Mean arterial pressure effects of fusaric acid hydrazide (100 mg/kg, i.v.), fusaric acid (100 mg/kg, i.v.) and Ex. #859 conjugate (250 mg/kg, i.v.) are shown in Table XXVII during a vehicle control period and 60 min post-injection of compound in anesthetized SHR. Rats were prepared as described above, minus the renal artery flow probe.

[3] = test system: spontaneously hypertensive rats; assay: Assay IX: chronic 4 day i.v. infusion of Ex. #861 and #863, mean arterial pressure in SHR; assay type: in vivo, rat; settings: for Blood Pressure (mean arterial pressure): 5 mg/hr i.v. infusion; for chronic effect on mean arterial pressure: SHR, 4 day infusion at 5 mg/hr
Experimental: The conjugates of Ex. #861 and #863 and saline vehicle were infused continuously for 4 days in spontaneously hypertensive rats. Mean arterial pressure was measured (Gould Chart Recorder, model 3800; Statham P23Db pressure transducer) via an indwelling femoral artery catheter between 10:00 a.m. and 2:00 p.m. each day. The Ex. #861 and Ex. #863 conjugates were infused at 5 mg/hr and the saline vehicle was infused at 100 μl/hr via a jugular vein catheter with a Harvard infusion pump. […] It is believed that at a higher dose of the Ex. #861 conjugate, blood pressure lowering effects would be observed.

[4] = test system: spontaneously hypertensive rats; assay: Assay VI: acute in vivo effects on mean arterial pressure and renal blood flow in anesthetized SHR (i.v. or i.d.); set-up: species or system rat; settings: for MAP / RBF: 100 mg/kg i.v.
Experimental: Spontaneously hypertensive rats were anesthetized with inactin (100 mg/kg, i.p.) and catheters were implanted into a carotid artery for measurement of mean arterial pressure (Gould model 3800 chart recorder; Statham pressure transducer model no. P23DB) and into a jugular vein for compound administrations (i.v. or i.d.). In addition, a flow probe was implanted around the left renal artery for measurement of renal blood flow using pulsed Doppler flowmetry. Rats were allowed 60 min to stabilize before 10 minutes of control recordings of mean arterial pressure and renal blood flow were obtained. Control measurements were followed by intravenous injection of 50 mg/kg of fusaric acid or the Ex. #859 conjugate. […] The Ex. #859 conjugate had no effect on mean arterial pressure at a dose of 100 mg/kg (n=4) during a 60 minute observation period. Renal blood flow (n=4) was unchanged 15 minutes after injection of the Ex. #859 conjugate but increased from 1.1 KHz (control period) to 3.5 KHz at 30 minutes postinjection.

[5] = test system: Sprague-Dawley rats; assay: Assay I: acute in vivo effects on mean arterial pressure and renal blood flow, anesthetized rats; set-up: species or system rat; settings: for MAP / RBF: 100 mg/kg i.v.
Experimental: Sprague-Dawley rats were anesthetized with inactin (100 mg/kg, i.p.) and catheters were implanted into a carotid artery for measurement of mean arterial pressure (Gould model 3800 chart recorder; Statham pressure transducer model no. P23DB) and into a jugular vein for compound administrations (i.v.). In addition, a flow probe was implanted around the left renal artery for measurement of renal blood flow using Carolina Medical Electronics flow probes. Rats were allowed 60 min to stabilize before 10 minutes of control recordings of mean arterial pressure and renal blood flow were obtained. Control measurements were followed by intravenous injection of Ex. #3 conjugate and saline vehicle.

[6] = test system: spontaneously hypertensive rats; assay: Assay II: chronic i.v. infusion, mean arterial pressure in spontaneously hypertensive rats (Ex. #3); assay type: in vivo, rat; settings: SHR, continuous infusion 5 mg/hr
Experimental: (§1) The Ex. #3 conjugate and saline vehicle were infused continuously for four days in spontaneously hypertensive rats. Mean arterial pressure was measured (Gould Chart Recorder, model 3800; Statham P23Db pressure transducer) via an indwelling femoral artery catheter between 10:00 a.m. and 2:00 p.m. each day. The Ex. #3 conjugate was infused at 5 mg/hr and the saline vehicle was infused at 300 μL,/hr. via a jugular vein catheter with a Harvard infusion pump.

[7] = test system: spontaneously hypertensive rats; assay: Assay III: chronic i.v. infusion, mean arterial pressure in spontaneously hypertensive rats (Ex. #464); assay type: in vivo, rat; settings: SHR; for MAP: continuous infusion 10 mg/hr
Experimental: as §1, with “#464” for “#3”, “10” for “5”, “μL/hr.” for “μL,/hr. via a jugular vein catheter with a Harvard infusion pump.”

[8] = test system: conscious SHR; assay: Assay XIII: antihypertensive experiments in conscious SHR (renal denervation, bulbocapnine); assay type: in vivo, rat; settings: bulbocapnine alone
Experimental: For antihypertensive experiments, male SHR (11-13 weeks of age; Harlan Sprague-Dawley, Inc.; Indianapolis, Ind.) were habituated for 3-4 days in individual experimental cages, which became their home cages for the duration of the study. Five to seven days before experimentation, SHR were anesthetized with chloral hydrate (400 mg/kg; Sigma Chemical Co., St. Louis, Mo.) and catheters were implanted into a femoral artery and vein. The catheters were led to the back of the neck, exteriorized, and channeled through a tether and swivel system (Alice King Chatham, Los Angeles, Calif.). Surgical renal denervation was performed as above. […] In separate groups of conscious SHR, Ex. #859 (5 mg/kg/hr, n=6) was infused alone, Ex. #859 (5 mg/kg/hr, n=6) was coinfused with bulbocapnine (100 μg/kg/min), or Ex. #859 (10 mg/kg/hr, n=6) was infused 5-7 days after surgical renal denervation. Surgical renal denervation was performed as described above. After a one hour control measure of mean arterial pressure, compounds were infused for four hours and mean arterial pressure was measured continuously.

[9] = anesthetized SHR, Ex. #863 (Table XXVI)

With `CCCCc1ccc(C(=O)NN)nc1` [Fusaric Acid Hydrazide, 5-n-butylpicolinic acid hydrazide] the inhibition at 20 µM [1] was 13.8%, the “inhibitory effect on dopamine-β-hydroxylase activity” value ([1]; tested at 20 uM) was “Only fusaric acid had significant inhibitory effects” and the Mean arterial pressure ([2]; 60 MIN post-injection) was 104 ± 13 mmHg. The Mean arterial pressure ([2]; ZERO (vehicle control period)) was 159 ± 8 mmHg.

`CCCCc1ccc(C(=O)NNC(=O)CCC(N)C(=O)O)nc1` [Ex. #858, L-glutamic acid, 5-{[(5-butyl-2-pyridinyl)carbonyl]hydrazide}] gave an inhibition at 20 µM [1] of 0%.

In the case of `CCCCc1ccc(C(=O)N2CCN(C(=O)CCC(NC(C)=O)C(=O)O)CC2)nc1` (stereo not shown) [Ex. #863, 2-(acetylamino)-5-(4-[(5-butyl-2-pyridinyl)carbonyl]-1-piperazinyl]-5-oxopentanoic acid], the “Blood Pressure (mean arterial pressure)” value ([3]; day 1) is reported as 152 ± 6, the “Blood Pressure (mean arterial pressure)” value ([3]; day 2) is reported as 146 ± 7 and the “Blood Pressure (mean arterial pressure)” value ([3]; day 3) is reported as 142 ± 7. The “Blood Pressure (mean arterial pressure)” value ([3]; day 4) was 154 ± 7, the “Blood Pressure (mean arterial pressure)” value ([3]; day zero) was 177 ± 5 and the “chronic effect on mean arterial pressure” value [3] was “lowered mean arterial pressure”. For the same compound, the MAP ([4]; 60 min) was 147 ± 14 mm Hg, the RBF ([4]; 60 min) was 4.3 ± 0.3 KHz and the MAP ([4]; time zero) was 149 ± 14 mm Hg. For the same compound, the RBF ([4]; time zero) was 1.6 ± 0.2 KHz, the “effect on mean arterial pressure” value [4, 9] was “no effect” and the “effect on renal blood flow” value [4, 9] was “increased renal blood flow”.

Compound `CC(=O)NC(CCC(=O)N[C@@](C)(Cc1ccc(O)cc1)C(=O)O)C(=O)O` (stereo partly drawn) [Ex. #3, N-[4-(acetylamino)-4-carboxy-1-oxobutyl]-α-methyl-L-tyrosine] has an MAP ([5]; 15 min after injection) of 77 ± 5 mm Hg, an RBF ([5]; 15 min after injection) of 7.1 ± 0.1 mL/min and an MAP ([5]; 30 min after injection) of 73 ± 4 mm Hg. It also gave an RBF ([5]; 30 min after injection) of 6.2 ± 0.3 mL/min, an MAP ([5]; 45 min after injection) of 70 ± 2 mm Hg and an RBF ([5]; 45 min after injection) of 5.9 ± 0.1 mL/min. It also gave an MAP ([5]; 60 min after injection) of 71 ± 6 mm Hg, an RBF ([5]; 60 min after injection) of 5.9 ± 0.1 mL/min and an MAP ([5]; time after injection Zero min) of 76 ± 5 mm Hg. For the same compound, the RBF ([5]; time after injection Zero min) was 4.8 ± 0.8 mL/min, the “acute effect on mean arterial pressure (MAP)” value ([5]; i.v. injection) was “no acute effects” and the “acute effect on renal blood flow (RBF)” value ([5]; i.v. injection) was “increased renal blood flow”. For the same compound, the MAP ([6]; day 1) was 175 ± 5 mm Hg, the MAP ([6]; day 2) was 174 ± 5 mm Hg and the MAP ([6]; day 3) was 172 ± 2 mm Hg. For the same compound, the MAP ([6]; day Zero) was 164 ± 3 mm Hg.

In the case of `CC(=O)NC(CCC(=O)N[C@@](C)(Cc1ccc(O)c(O)c1)C(=O)O)C(=O)O` (stereo partly drawn) [Ex. #464, N-[4-(acetylamino)-4-carboxy-1-oxobutyl]-3-hydroxy-α-methyl-L-tyrosine], the MAP ([7]; day 1) is reported as 169 ± 5 mm Hg, the MAP ([7]; day 2) is reported as 161 ± 4 mm Hg and the MAP ([7]; day 3) is reported as 163 ± 5 mm Hg. The MAP ([7]; day 4) was 159 ± 8 mm Hg, the MAP ([7]; day Zero) was 179 ± 6 mm Hg and the “effect on mean arterial pressure over the four-day period” value ([7]; infusion 10 mg/hr) was “lowered significantly”.

Compound `CCCCc1ccc(C(=O)NCCNC(=O)CCC(NC(C)=O)C(=O)O)nc1` (as salt: salt) [Ex. #861, N^2-acetyl-N-[2-[[(5-butyl-2-pyridinyl)carbonyl]amino]ethyl]-L-glutamine] has a melting point of 156 to 158 °C.

For `CCCCc1ccc(C(=O)NCCNC(=O)CCC(NC(C)=O)C(=O)O)nc1` [Ex. #861, N^2-acetyl-N-[2-[[(5-butyl-2-pyridinyl)carbonyl]amino]ethyl]-L-glutamine], the “Blood Pressure (mean arterial pressure)” value ([3]; day 1) was 173 ± 3, the “Blood Pressure (mean arterial pressure)” value ([3]; day 2) was 172 ± 4 and the “Blood Pressure (mean arterial pressure)” value ([3]; day 3) was 172 ± 3. For the same compound, the “Blood Pressure (mean arterial pressure)” value ([3]; day 4) was 163 ± 9, the “Blood Pressure (mean arterial pressure)” value ([3]; day zero) was 177 ± 3 and the “chronic effect on mean arterial pressure” value [3] was “did not change”.

`COc1ccc2c(c1O)-c1c3c(cc4c1[C@H](C2)N(C)CC4)OCO3` [Bulbocapnine, bulbocapnine, reference compound] showed a Mean arterial pressure ([8]; 0 hours) of 160 ± 6, a Mean arterial pressure ([8]; 1 hour) of 156 ± 7 and a Mean arterial pressure ([8]; 2 hours) of 161 ± 11. The Mean arterial pressure ([8]; 3 hours) was 159 ± 6, the Mean arterial pressure ([8]; 4 hours) was 157 ± 7 and the “effect on mean arterial pressure over the four hour period” value ([8]; conscious SHR) was “no effect”.
